According to EP2681209B1, “COMPOUNDS AND METHODS FOR THE TREATMENT OF PAIN AND OTHER DISORDERS” (Aquilus Pharmaceuticals, Inc, priority 2011, dated 2012):

Tested on: FVB male mice
Experiment: Spinal nerve ligation (SNL) mouse model of neuropathic pain, intrathecal administration, von Frey tactile allodynia test
Type: in vivo
Settings: for 50% paw withdrawal threshold, Mean, Day 0 Postoperative Baseline: group baseline after SNL injury, before first injection; for 50% paw withdrawal threshold, Mean, Day 0 Postoperative Baseline / 50% paw withdrawal threshold, Mean, Day(-2) Pre-operative Baseline: von Frey; for 50% paw withdrawal threshold, Mean, Day(-2) Pre-operative Baseline: group baseline prior to SNL injury and before any treatment; for 50% paw withdrawal threshold, Mean, Day 5 / 50% paw withdrawal threshold, Mean, Day 7 / 50% paw withdrawal threshold, Mean, Day 1: i.t. 10 µl/mouse daily injections day 1-6; for 50% paw withdrawal threshold, Mean, Day 1: testing 2hr after first i.t. injection
Excerpt: To measure the neuropathic pain inhibiting affects of the MMP inhibitors of the present invention, the spinal nerve ligation (SNL) mouse model was run on a select number of compounds. This model which began with the work of Bennet and coworkers (Bennet, G.J. et al. Pain, 33, (1988), 87-107) and was optimized by Kim and Chung (Kim, S.H.; Chung, J.M. Pain, 50, (1992), 355-363) entails first, under magnification, the removal of one-third of the transverse process and then identifying and then dissecting free the L5 spinal nerve from the adjacent L4 spinal nerve in the mouse. The L5 spinal nerve is then tightly ligated using 6.0 silk suture. The nerve injury leads to hyperalgesia which manifests itself by enhanced responses to mechanical, heat and/or cooling stimuli. In this case, mechanical hyperalgesia is tested via Von Frey monofilaments in which filaments of varying thicknesses and bending force are individually applied to the plantar surface of the foot of the mouse. The threshold force necessary for paw withdrawal decreases dramatically after the nerve surgery. Potent pain inhibitors will reverse this affect resulting in greater force needing to be applied to cause the rodent paw to withdrawal.
Following preoperative baseline (Day -2) paw threshold measurement, FVB male mice were subjected to SNL injury (Day -1). The next day (Day 0) after SNL surgery, the animals were tested for post-operative baseline threshold measurements for mechanical allodynia; and the animals were then randomly assigned to one of 3 treatment groups (see Table 3). Over the course of the study, paw withdrawal threshold of these animals was measured in response to mechanical stimulation using the von Frey Monofilament Test.
To avoid systemic effects of the MMP inhibitors, the MMP inhibitors of the present invention were delivered into the cerebral spinal fluid (CSF) space around lumbosacral spinal cord via intrathecal (i.t.) administration, with the idea of targeting MMPs in the DRG, spinal cord, and spinal CSF. Intrathecal MMP inhibitor administration could then target not only spinal cord cells but also DRG cells. Each intrathecal (i.t.) injection was carried out according to the technique of Hylden and Wilcox (Hylden JL, Wilcox GL. Eur. J Pharmacol., 67, (1980), 313-6) 5.2 mg of each of the MMP inhibitors were first dissolved in 140 microliters of DMSO and then put into 1260 microliters of 0.5% hydroxypropyl cellulose (HPC) in water to make a fine suspension composed of compound in 10%DMSO-0.5% hydroxypropyl cellulose. 10 microliters of the mixture was injected into the intrathecal space of male FVB mice (weighing 22-25 grams each and obtained from the Jackson Laboratories, Bar Harbor, Me), by lumbar puncture in a volume of 10 µl/mouse using a Hamilton microsyringe via a 30 gauge needle inserted between lumbar vertebrae 5 and 6. In brief, each animal was held firmly by the pelvic girdle in one hand, while the needle was inserted into the tissue on the right side of the L5 or L6 spinous process. The needle was moved forward and slipped into the groove between the spinous process and transverse process and gently moved forward to the intervertebral space at ∼10° angle. As the needle was inserted (∼0.5 cm) within the vertebral column a tail flick was evident, and the solution was then injected. Table 3. Animal i.t. Treatment Groups & Compounds Tested
Tactile Allodynia Test. Mechanical allodynia was measured using the calibrated von Frey filaments (Semmes-Weinstein monofilaments; Stoelting, Wood Dale, IL, U.S.A.). The plantar surface of the left injured paw of each animal was tested as described by Chaplan et al. (Journal of Neuroscience Methods, 53, (1994), 55-63). […]

Row | Compound | 50% paw withdrawal threshold, Mean, Day 0 Postoperative Baseline | 50% paw withdrawal threshold, Mean, Day(-2) Pre-operative Baseline | 50% paw withdrawal threshold, Mean, Day 5 | 50% paw withdrawal threshold, Mean, Day 7 | 50% paw withdrawal threshold, Mean, Day 1 | reversal of allodynia (i.t. administration, as compared to vehicle and compound #5)
1 | Cc1ccc(C#Cc2ccc(S(=O)(=O)N[C@H](Cc3c[nH]c4ccccc34)C(=O)O)s2)cc1 [Compound 5, (R)-3-(1H-Indol-3-yl)-2-(5-p-tolylethynyl-thiophene-2-sulfonylamino)-propionic acid] | 0.050 g | 1.265 g | 0.079 g | 0.190 g | 0.098 g | 
2 | [2H]C([2H])([2H])c1ccc(C#Cc2ccc(S(=O)(=O)N[C@H](Cc3c[nH]c4ccccc34)C(=O)O)s2)cc1 [Compound 10, (R)-3-(1H-Indol-3-yl)-2-[5-(4-trideuteromethyl-phenylethynyl)-thiophene-2-sulfonylamino]-propionic acid-(D3, 98%)] | 0.077 g | 1.268 g | 0.320 g | 1.024 g | 0.321 g | almost complete reversal of allodynia
